Experimental data published in patent US6960574B2, “Antagonists of RF-amide neuropeptides” (University of Florida, priority 2002, dated 2005).
Peptide text beside a SMILES is read from it. * marks the point of attachment. Dansyl = CN(C)c1cccc2c(S(=O)(=O)*)cccc12

system: receptor labeled by the radioiodinated analogue of 1 (4, [125I]-YLFQPQRF-NH2); neuropeptide FF receptor; assay: Competitive radioligand binding against 4 ([125I]Y8F-amide); conditions: mixture-based positional scanning; difference from averaged radioligand displacement of whole library (0); about 80 a.u. = 10-fold change in Ki

SMILES | Relative Binding Index (RBI)
CC(C)[C@H](NC(=O)[C@@H](NS(=O)(=O)c1cccc2c(N(C)C)cccc12)C(C)C)C(=O)N[C@@H](CCCNC(=N)N)C(N)=O [Dansyl-VVR-amide] (Dansyl-Val-Val-Arg-NH2) | −9 a.u.
CC(C)[C@H](NS(=O)(=O)c1cccc2c(N(C)C)cccc12)C(=O)N[C@@H](Cc1c[nH]c2ccccc12)C(=O)N[C@@H](CCCNC(=N)N)C(N)=O [Dansyl-VWR-amide] (Dansyl-Val-Trp-Arg-NH2) | 4 a.u.
C[C@H](NC(=O)[C@H](Cc1c[nH]c2ccccc12)NS(=O)(=O)c1cccc2c(N(C)C)cccc12)C(=O)N[C@@H](CCCNC(=N)N)C(N)=O [Dansyl-WAR-amide] (Dansyl-Trp-Ala-Arg-NH2) | −40 a.u.
CN(C)c1cccc2c(S(=O)(=O)N[C@@H](Cc3c[nH]c4ccccc34)C(=O)N[C@@H](CC(=O)O)C(=O)N[C@@H](CCCNC(=N)N)C(N)=O)cccc12 [Dansyl-WDR-amide] (Dansyl-Trp-Asp-Arg-NH2) | −9 a.u.
CN(C)c1cccc2c(S(=O)(=O)N[C@@H](Cc3c[nH]c4ccccc34)C(=O)N[C@@H](Cc3ccccc3)C(=O)N[C@@H](CCCNC(=N)N)C(N)=O)cccc12 [Dansyl-WFR-amide] | 7 a.u.
CN(C)c1cccc2c(S(=O)(=O)N[C@@H](Cc3c[nH]c4ccccc34)C(=O)NCC(=O)N[C@@H](CCCNC(=N)N)C(N)=O)cccc12 [Dansyl-WGR-amide] (Dansyl-Trp-Gly-Arg-NH2) | 14 a.u.
CN(C)c1cccc2c(S(=O)(=O)N[C@@H](Cc3c[nH]c4ccccc34)C(=O)N[C@@H](Cc3c[nH]cn3)C(=O)N[C@@H](CCCNC(=N)N)C(N)=O)cccc12 [Dansyl-WHR-amide] (Dansyl-Trp-His-Arg-NH2) | 3 a.u.
CCC(C)C(NC(=O)C(Cc1c[nH]c2ccccc12)NS(=O)(=O)c1cccc2c(N(C)C)cccc12)C(=O)NC(CCCNC(=N)N)C(N)=O (stereo not drawn) [Dansyl-WIR-amide] (Dansyl-Trp-Ile-Arg-NH2; configuration not given here) | 15 a.u.
CN(C)c1cccc2c(S(=O)(=O)N[C@@H](Cc3c[nH]c4ccccc34)C(=O)N[C@@H](CCCCN)C(=O)N[C@@H](CCCNC(=N)N)C(N)=O)cccc12 [Dansyl-WKR-amide] (Dansyl-Trp-Lys-Arg-NH2) | 6 a.u.
CC(C)C[C@H](NC(=O)[C@H](Cc1c[nH]c2ccccc12)NS(=O)(=O)c1cccc2c(N(C)C)cccc12)C(=O)N[C@@H](CCCNC(=N)N)C(N)=O [Dansyl-WLR-amide] | 0 a.u.
CSCC[C@H](NC(=O)[C@H](Cc1c[nH]c2ccccc12)NS(=O)(=O)c1cccc2c(N(C)C)cccc12)C(=O)N[C@@H](CCCNC(=N)N)C(N)=O [Dansyl-WMR-amide] (Dansyl-Trp-Met-Arg-NH2) | 9 a.u.
CN(C)c1cccc2c(S(=O)(=O)N[C@@H](Cc3c[nH]c4ccccc34)C(=O)N[C@@H](CC(N)=O)C(=O)N[C@@H](CCCNC(=N)N)C(N)=O)cccc12 [Dansyl-WNR-amide] (Dansyl-Trp-Asn-Arg-NH2) | 10 a.u.
CN(C)c1cccc2c(S(=O)(=O)N[C@@H](Cc3c[nH]c4ccccc34)C(=O)N3CCC[C@H]3C(=O)N[C@@H](CCCNC(=N)N)C(N)=O)cccc12 [Dansyl-WPR-amide] (Dansyl-Trp-Pro-Arg-NH2) | 12 a.u.
CN(C)c1cccc2c(S(=O)(=O)N[C@@H](Cc3c[nH]c4ccccc34)C(=O)N[C@@H](CCCNC(=N)N)C(=O)N[C@@H](CCCNC(=N)N)C(N)=O)cccc12 [Dansyl-WRR-amide] (Dansyl-Trp-Arg-Arg-NH2) | 7 a.u.
CN(C)c1cccc2c(S(=O)(=O)N[C@@H](Cc3c[nH]c4ccccc34)C(=O)N[C@@H](CO)C(=O)N[C@@H](CCCNC(=N)N)C(N)=O)cccc12 [Dansyl-WSR-amide] (Dansyl-Trp-Ser-Arg-NH2) | 29 a.u.
C[C@@H](O)[C@H](NC(=O)[C@H](Cc1c[nH]c2ccccc12)NS(=O)(=O)c1cccc2c(N(C)C)cccc12)C(=O)N[C@@H](CCCNC(=N)N)C(N)=O [Dansyl-WTR-amide] (Dansyl-Trp-Thr-Arg-NH2) | 14 a.u.
CC(C)[C@H](NC(=O)[C@H](Cc1c[nH]c2ccccc12)NS(=O)(=O)c1cccc2c(N(C)C)cccc12)C(=O)N[C@@H](CCCNC(=N)N)C(N)=O [Dansyl-WVR-amide] (Dansyl-Trp-Val-Arg-NH2) | 4 a.u.
CN(C)c1cccc2c(S(=O)(=O)N[C@@H](Cc3c[nH]c4ccccc34)C(=O)N[C@@H](Cc3c[nH]c4ccccc34)C(=O)N[C@@H](CCCNC(=N)N)C(N)=O)cccc12 [Dansyl-WWR-amide] (Dansyl-Trp-Trp-Arg-NH2) | 17 a.u.
CN(C)c1cccc2c(S(=O)(=O)N[C@@H](Cc3c[nH]c4ccccc34)C(=O)N[C@@H](Cc3ccc(O)cc3)C(=O)N[C@@H](CCCNC(=N)N)C(N)=O)cccc12 [Dansyl-WYR-amide] (Dansyl-Trp-Tyr-Arg-NH2) | 7 a.u.
CN(C)c1cccc2c(S(=O)(=O)N[C@@H](Cc3ccc(O)cc3)C(=O)N3CCC[C@H]3C(=O)N[C@@H](CCCNC(=N)N)C(N)=O)cccc12 [Dansyl-YPR-amide] (Dansyl-Tyr-Pro-Arg-NH2) | 10 a.u.

More lines, now with the values ahead:

Relative Binding Index (RBI) | SMILES
−6 a.u. | CC(C)[C@H](NS(=O)(=O)c1cccc2c(N(C)C)cccc12)C(=O)N[C@@H](Cc1ccc(O)cc1)C(=O)N[C@@H](CCCNC(=N)N)C(N)=O [Dansyl-VYR-amide] (Dansyl-Val-Tyr-Arg-NH2)
9 a.u. | CN(C)c1cccc2c(S(=O)(=O)N[C@@H](Cc3c[nH]c4ccccc34)C(=O)N[C@@H](CCC(=O)O)C(=O)N[C@@H](CCCNC(=N)N)C(N)=O)cccc12 [Dansyl-WER-amide] (Dansyl-Trp-Glu-Arg-NH2)
22 a.u. | CN(C)c1cccc2c(S(=O)(=O)N[C@@H](Cc3c[nH]c4ccccc34)C(=O)N[C@@H](CCC(N)=O)C(=O)N[C@@H](CCCNC(=N)N)C(N)=O)cccc12 [Dansyl-WQR-amide] (Dansyl-Trp-Gln-Arg-NH2)
−42 a.u. | C[C@H](NC(=O)[C@H](Cc1ccc(O)cc1)NS(=O)(=O)c1cccc2c(N(C)C)cccc12)C(=O)N[C@@H](CCCNC(=N)N)C(N)=O [Dansyl-YAR-amide] (Dansyl-Tyr-Ala-Arg-NH2)
−11 a.u. | CN(C)c1cccc2c(S(=O)(=O)N[C@@H](Cc3ccc(O)cc3)C(=O)N[C@@H](CC(=O)O)C(=O)N[C@@H](CCCNC(=N)N)C(N)=O)cccc12 [Dansyl-YDR-amide] (Dansyl-Tyr-Asp-Arg-NH2)
7 a.u. | CN(C)c1cccc2c(S(=O)(=O)N[C@@H](Cc3ccc(O)cc3)C(=O)N[C@@H](CCC(=O)O)C(=O)N[C@@H](CCCNC(=N)N)C(N)=O)cccc12 [Dansyl-YER-amide] (Dansyl-Tyr-Glu-Arg-NH2)
6 a.u. | CN(C)c1cccc2c(S(=O)(=O)N[C@@H](Cc3ccc(O)cc3)C(=O)N[C@@H](Cc3ccccc3)C(=O)N[C@@H](CCCNC(=N)N)C(N)=O)cccc12 [Dansyl-YFR-amide] (Dansyl-Tyr-Phe-Arg-NH2)
12 a.u. | CN(C)c1cccc2c(S(=O)(=O)N[C@@H](Cc3ccc(O)cc3)C(=O)NCC(=O)N[C@@H](CCCNC(=N)N)C(N)=O)cccc12 [Dansyl-YGR-amide] (Dansyl-Tyr-Gly-Arg-NH2)
1 a.u. | CN(C)c1cccc2c(S(=O)(=O)N[C@@H](Cc3ccc(O)cc3)C(=O)N[C@@H](Cc3cnc[nH]3)C(=O)N[C@@H](CCCNC(=N)N)C(N)=O)cccc12 [Dansyl-YHR-amide] (Dansyl-Tyr-His-Arg-NH2)
13 a.u. | CC[C@H](C)[C@H](NC(=O)[C@H](Cc1ccc(O)cc1)NS(=O)(=O)c1cccc2c(N(C)C)cccc12)C(=O)N[C@@H](CCCNC(=N)N)C(N)=O [Dansyl-YIR-amide] (Dansyl-Tyr-Ile-Arg-NH2)
5 a.u. | CN(C)c1cccc2c(S(=O)(=O)N[C@@H](Cc3ccc(O)cc3)C(=O)N[C@@H](CCCCN)C(=O)N[C@@H](CCCNC(=N)N)C(N)=O)cccc12 [Dansyl-YKR-amide] (Dansyl-Tyr-Lys-Arg-NH2)
−1 a.u. | CC(C)C[C@H](NC(=O)[C@H](Cc1ccc(O)cc1)NS(=O)(=O)c1cccc2c(N(C)C)cccc12)C(=O)N[C@@H](CCCNC(=N)N)C(N)=O [Dansyl-YLR-amide] (Dansyl-Tyr-Leu-Arg-NH2)
7 a.u. | CSCC[C@H](NC(=O)[C@H](Cc1ccc(O)cc1)NS(=O)(=O)c1cccc2c(N(C)C)cccc12)C(=O)N[C@@H](CCCNC(=N)N)C(N)=O [Dansyl-YMR-amide] (Dansyl-Tyr-Met-Arg-NH2)
8 a.u. | CN(C)c1cccc2c(S(=O)(=O)N[C@@H](Cc3ccc(O)cc3)C(=O)N[C@@H](CC(N)=O)C(=O)N[C@@H](CCCNC(=N)N)C(N)=O)cccc12 [Dansyl-YNR-amide] (Dansyl-Tyr-Asn-Arg-NH2)
21 a.u. | CN(C)c1cccc2c(S(=O)(=O)N[C@@H](Cc3ccc(O)cc3)C(=O)N[C@@H](CCC(N)=O)C(=O)N[C@@H](CCCNC(=N)N)C(N)=O)cccc12 [Dansyl-YQR-amide] (Dansyl-Tyr-Gln-Arg-NH2)
6 a.u. | CN(C)c1cccc2c(S(=O)(=O)N[C@@H](Cc3ccc(O)cc3)C(=O)N[C@@H](CCCNC(=N)N)C(=O)N[C@@H](CCCNC(=N)N)C(N)=O)cccc12 [Dansyl-YRR-amide] (Dansyl-Tyr-Arg-Arg-NH2)
28 a.u. | CN(C)c1cccc2c(S(=O)(=O)N[C@@H](Cc3ccc(O)cc3)C(=O)N[C@@H](CO)C(=O)N[C@@H](CCCNC(=N)N)C(N)=O)cccc12 [Dansyl-YSR-amide] (Dansyl-Tyr-Ser-Arg-NH2)
13 a.u. | C[C@@H](O)[C@H](NC(=O)[C@H](Cc1ccc(O)cc1)NS(=O)(=O)c1cccc2c(N(C)C)cccc12)C(=O)N[C@@H](CCCNC(=N)N)C(N)=O [Dansyl-YTR-amide] (Dansyl-Tyr-Thr-Arg-NH2)
2 a.u. | CC(C)[C@H](NC(=O)[C@H](Cc1ccc(O)cc1)NS(=O)(=O)c1cccc2c(N(C)C)cccc12)C(=O)N[C@@H](CCCNC(=N)N)C(N)=O [Dansyl-YVR-amide] (Dansyl-Tyr-Val-Arg-NH2)
